# Measurements reported in patent US12064405B2, “Immunosuppressant comprising TSAHC or a pharmaceutically acceptable salts thereof as an active ingredient” (Seoul National University R&DB Foundation, priority 2020, dated 2024).
# How the values were obtained:
# Ccl20 = assay: CCl4-induced liver damage, inflammation and fibrosis with suppression of Ccl20 expression by siRNA; type: in vivo, mouse
# Protocol: 12-week-old normal WT or Tm4sf5^−/− KO mice (5 per group) were intraperitoneally injected with CCl4 (TRC, Canada, C176905, 10 mg/kg/40% olive oil) twice a week for 4 weeks. Ccl20 siRNA [sense 5′-GGAGGAAAUGAUCACAGCUtt-3′ (SEQ. ID. NO: 101), antisense 5′-AGCUGUGAUCAUUUCCUCCtt-3 (SEQ. ID. NO: 102) was purchased from Ambion (Austin Texas, USA) and diluted to an appropriate concentration in PBS. Ccl20 siRNA (1.66 mg/kg) or vehicle was intravenously injected into the mice twice a week. After 4 weeks, liver and blood samples of the animals were obtained.
# As shown in the scheme of FIG. 5, 12-week-old normal C57BL/6 mice were intraperitoneally injected with CCl4 (40% in olive oil) at a concentration of 10 mg/kg body weight twice a week for 26 days. At the same time, siRNA against CCL20 (Amibon, Austin Texas, USA, Assay ID 72932, sense 5′-GGAGGAAAUGAUCACAGCUtt-3′, antisense 5′-AGCUGUGAUCAUUUCCUCCtt-3′) dissolved in PBS at a concentration of 1.66 mg/kg was intravenously injected for 26 days before the CCl4 injection. After 26 days of the injection, the mice were sacrificed, and the liver tissue was obtained. Then, the disease state of the liver was investigated by performing immunohistochemistry (IHC), Masson's trichrome staining and qRT-PCR.
# Specifically, for H&E staining, the tissue was placed in a 60° C. oven for about 20 minutes to separate the tissue from paraffin, and when the paraffin melted, the tissue was immersed in xylene three times for 5 minutes each. The tissue was put into 100%→90%→80%→70% ethanol→distilled water for 3 minutes each in the order, and then immersed in a hematoxylin solution for 5 minutes to react. After sufficiently washing the tissue with tap water, it was reacted with an eosin solution for about 20 minutes, and washed again with tap water. Then, the tissue was immersed in 70%→80%→90%→100% ethanol→xylene for 3 minutes each in the order for dehydration, followed by mounting on a slide.
# Paraffin blocks and liver tissue sections for immunohistochemical staining were obtained from Abion Inc. (Seoul, Korea). As antibodies, F4/80 (Cell Signaling Technology), Ccl20, laminin γ2 (Santa Cruz Biotechnology) were used.
# For Masson's trichrome staining, the tissue was first separated from paraffin and then reacted in a preheated bouin's solution for 1 hour. After rinsing the tissue with tap water until the solution was completely drained, it was reacted in a hematoxylin solution for 10 minutes, and then rinsed again with tap water. Then, the tissue was reacted in a biebrich scarlet-acid fuchsin solution for 5 minutes, immersed in distilled water, and reacted in a phosphotungstic/phosphomolybdic acid solution for 15 minutes. The tissue was immersed in an Aniline blue solution for 10 minutes and 1% acetic acid for 1 minute for dehydration. The tissue was immersed in xylene, followed by mounting on a slide.
# cells expressing TM4SF5 = assay: Activation of glycolytic function (acidification of extracellular solution, Seahorse); type: cell-based
# Protocol: The cells expressing TM4SF5 were treated with vehicle, a negative control compound (4′-methoxy-4-dihydroxychalcone) or TSAHC. Then, the degree of activation of glycolytic function was measured by measuring the acidification of the extracellular solution due to glycolysis while additionally adding glucose at various concentrations using Seahorse equipment.
# [1] = test system: cell lines expressing TM4SF5; assay: qRT-PCR of M1-type macrophage chemokines/cytokines CCL2, TNF-α, IL-6, IL-1β; type: cell-based; conditions: cell line expressing TM4SF5, LPS and IFN-γ
# Protocol: Cell lines not expressing TM4SF5 (EV) or cell lines expressing thereof (TM4SF5) were treated (+) or not treated with LPS and IFN-γ, treated (+) or not treated with 2-DG (2-Deoxy-D-glucose) as a drug for inhibiting glycolysis at a given concentration, and additionally treated (+) or not treated with TSAHC (−). Then, the mRNA expression levels of CCL2, TNF-α, IL-6, and IL-1β, the chemokines/cytokines indicating the activation of M1-type macrophages, were confirmed by qRT-PCR.
# [2] = test system: M1 and M2 type macrophages differentiated from THP-1 cells; assay: qRT-PCR of M1 or M2 type macrophage markers in macrophages differentiated from THP-1 cells; type: cell-based, human; conditions: 100 nM for 24 hours; for mRNA levels of M1 type macrophage markers (TNFα, IL1β, IL6) compared to the control group: M1 type macrophages, FIG. 12A
# Protocol: M1 and M2 type macrophages (MΦ) differentiated from THP-1 cells were treated with CCL20 or CXCL10 at a concentration of 100 nM for 24 hours, and then the mRNA expression levels of the markers indicating the activity as M1 or M2 type macrophages were confirmed by qRT-PCR. For M1 type macrophages, the mRNA expression levels of TNFα, IL1β and IL6 were measured, and for M2 type macrophages, the mRNA expression levels of CD206 and FN1 were measured.
# [3] = test system: M0 THP-1 cells expressing TM4SF5; assay: Glycolytic Proton Efflux Rate (GlycoPER) in M0 THP-1 cells treated with CCL20 or CXCL10; type: cell-based, human; conditions: 300 ng/ml for 24 hours, FIG. 9
# Protocol: THP-1 cells infected with a lentivirus with an empty vector not expressing TM4SF5 or a lentivirus expressing TM4SF5 were treated with 100 nM phorbol-12-myristate-13-acetate (PMA) for 24 hours to differentiate into M0 cells (experimental condition to confirm the not repetitive effects of cytokines/chemokines in the early stage by representing the case before differentiation into M1 type), and then, 300 ng/ml of CCL20 or CXCL10 was treated for 24 hours, and basal and compensatory Glycolytic Proton Efflux Rate (GlycoPER) were measured using a Seahorse XFp device.
molecule,measurement,setting,value
"Ccl20 siRNA: siRNA against CCL20 (Ambion), sense 5′-GGAGGAAAUGAUCACAGCUtt-3′, antisense 5′-AGCUGUGAUCAUUUCCUCCtt-3′ (sense GGAGGAAAUGAUCACAGCUTT; antisense AGCUGUGAUCAUUUCCUCCTT; chemistry not given here)",collagen type 1 α1 chain (Col1α1) mRNA level in liver,"Ccl20; during CCl4 treatment, FIG. 6A",decreased
same,Ccl20 mRNA level in liver,"Ccl20; during CCl4 treatment, FIG. 6B",decreased
same,F4/80 mRNA level in liver,"Ccl20; during CCl4 treatment, FIG. 6C",decreased
same,α-smooth muscle actin (Sma) mRNA level in liver,"Ccl20; during CCl4 treatment, FIG. 6D",decreased
same,"effect of CCl4 treatment (liver tissue damage, collagen accumulation, Ccl20 and Cxcl10 accumulation, F4/80 macrophage infiltration, laminin γ2 accumulation)","Ccl20; siRNA 1.66 mg/kg intravenously, CCl4 10 mg/kg twice a week, 26 days, FIG. 5",significantly inhibited
"4′-methoxy-4-dihydroxychalcone [control compound, reference compound]",glycolysis of the cells not expressing TM4SF5 (EV),"cells expressing TM4SF5; EV cell line, FIG. 8B",not changed
same,glycolytic function of cells expressing TM4SF5,"cells expressing TM4SF5; various concentrations of glucose added, FIG. 8C",not changed
"O=CC[C@@H](O)[C@H](O)[C@H](O)CO [2-DG, 2-Deoxy-D-glucose, reference compound]",CCL2 mRNA expression level,[1]; FIG. 11A,decreased
same,TNF-α mRNA expression level,[1]; FIG. 11B,decreased
same,IL-6 mRNA expression level,[1]; FIG. 11C,decreased
same,IL-1β mRNA expression level,[1]; FIG. 11D,decreased
CCL20: chemokine used to treat THP-1-derived macrophages,"mRNA levels of M1 type macrophage markers (TNFα, IL1β, IL6) compared to the control group",[2],decreased
same,"mRNA levels of M2 type macrophage markers (CD206, FN1)","[2]; M2 type macrophages, CCL20 alone or together with CXCL10, FIG. 12B",significantly increased
same,glycolytic function (basal and compensatory GlycoPER) versus vehicle-treated control group,[3],higher
CXCL10: chemokine used to treat THP-1-derived macrophages,"mRNA levels of M1 type macrophage markers (TNFα, IL1β, IL6) compared to the control group",[2],decreased
same,glycolytic function (basal and compensatory GlycoPER) versus vehicle-treated control group,[3],higher
